Patent US9045450B2, “Method for chemical synthesis of antrocin and use thereof for suppressing non-small cell lung cancer” (KAIYEW INVESTMENT CORP., priority 2011, dated 2015)
Entries after “also recorded” stand apart in the source; their conditions may differ.

Tests used:
H441 lung cancer cells = assay: Microarray analysis of gene transcription in H441 cells after antrocin treatment; format: cell-based, Homo sapiens; settings: 12 hours
Method: (§1) The present invention further investigated the effect of antrocin on cancer cells at the genetic level. After H441 cells had been treated with 5 μM antrocin for 12 hours, the effect of antrocin on genetic transcription was analyzed. Only those genes whose expressions were inhibited 3.5 times or more were analyzed as target genes by GeneSpring software package and the results were presented using a tree diagram (FIG. 5). […] These genes play important roles in cell proliferations, inflammatory responses, metastases, invasions, angiogenesis, and cell cycle regulations. […] These genes are associated with transcription factor NF-kB, for example cytokines (IFI44, IFIT1, MX1), inflammatory responses (NFkB1 and IFIT2), stem cell properties (CTNNBL1, SENP2, CEACAM1 and POU5F2), and drug resistance reactions (ABCB5, ABCG2 and XAF1), etc. Based on the aforementioned microarray results, the present invention further investigated protein expressions associated with inflammation related factors, stem cell properties, and drug resistance related molecules.
as §1, with “effect of Antrocin on genetic” for “effect of antrocin on genetic”, “a tree diagram. STRING9.0 software package was also used to predict the effect of antrocin on the signaling pathway of H441 cells and possible target genes to be inhibited (FIG. 5).” for “a tree diagram (FIG. 5).”, “example cytokines (1F144, IFIT1, MX1),” for “example cytokines (IFI44, IFIT1, MX1),”, “further investigated inflammatory responses, stem cell” for “further investigated protein expressions associated with inflammation related factors, stem cell”, “properties, and multidrug resistance-associated protein expressions.” for “properties, and drug resistance related molecules.”

[1] = Body weight of tumor-bearing mice; format: in vivo, non-obese diabetic/severe combined immunodeficient mice; settings: 5 and 10 mg/kg/day intraperitoneal, four weeks, FIG. 7 (C)
Method: […] cells (6×10^5/100 μl PBS) were intravenously injected into immunodeficient mice via lateral tail vein. Antrocin treatments (low dose of 5 mg/kg/day and high dose of 10 mg/kg/day) were performed by daily intraperitoneal injection into tumor-bearing mice over a period of four weeks. Weekly observations were performed and data were recorded for (A) VIS images, (B) Tumor growth, (C) Body weights, and (D) Survival curves.
The present invention further investigated anticancer effect of antrocin in vivo. H441-L2G cells expressing firefly luciferase and green fluorescent protein were implanted by intravenous injections via the lateral tail vein (6×10^5/100 μl PBS) into non-obese diabetic/severe combined immunodeficient mice. Daily intraperitoneal injections of antrocin (two groups of mice, a low dose of 5 mg/kg/day and a high dose of 10 mg/kg/day) were given over a period of four weeks to observe tumor growth.
The present invention further investigated the anticancer effect of antrocin in vivo. H441-L2G cells expressing firefly luciferase and green fluorescent protein were implanted by intravenous injections via the lateral tail vein (6×10^5/100 μl PBS) into non-obese diabetic/severe combined immunodeficiency mice. […]

XIAP = assay: Protein expression in H441 cells (FIG. 6); format: cell-based, human
Source text: (§2) The inhibitory effect of antrocin on protein expression is presented as relative multiple.Beta-actin protein was the internal reference (loading control).

caspase-3 enzyme = assay: Protein expression in H441 cells (FIG. 6); format: cell-based, human; settings: increasing dose
Source text: as §2

cyclin D1 = assay: Protein expression in H441 cells (FIG. 6); format: cell-based, human
Source text: as §2

H1975 cells = assay: Apoptosis, flow cytometry; format: cell-based, human; settings: H1975, antrocin treatment for 48 hours, FIG. 4 (B)

## C=C1CC[C@H]2C(C)(C)CCC[C@@]23C(=O)OC[C@@H]13 [antrocin]
H441 lung cancer cells; 5 μM antrocin
  number of genes whose expressions were significantly affected: more than 100 genes
H441 lung cancer cells; ABCB5, probe 8137310, 5 μM antrocin
  Multiple (reduction of gene expression): 3.62
H441 lung cancer cells; ABCG2, probe 8101675, 5 μM antrocin
  Multiple (reduction of gene expression): 3.93
H441 lung cancer cells; AKT1S1, probe 8038477, 5 μM antrocin
  Multiple (reduction of gene expression): 10.29
H441 lung cancer cells; ANG, probe 7973084, 5 μM antrocin
  Multiple (reduction of gene expression): 4.24
H441 lung cancer cells; CDC14C, probe 8132803, 5 μM antrocin
  Multiple (reduction of gene expression): 5.49
H441 lung cancer cells; CEACAM1, probe 8037205, 5 μM antrocin
  Multiple (reduction of gene expression): 4.99
H441 lung cancer cells; CXCL10, probe 8101126, 5 μM antrocin
  Multiple (reduction of gene expression): 4.62
H441 lung cancer cells; EDG7, probe 7917276, 5 μM antrocin
  Multiple (reduction of gene expression): 3.75
H441 lung cancer cells; EPSTI1, probe 7971296, 5 μM antrocin
  Multiple (reduction of gene expression): 5.61
H441 lung cancer cells; FLJ35880, probe 8082585, 5 μM antrocin
  Multiple (reduction of gene expression): 5.48
H441 lung cancer cells; FOSL1, probe 7949532, 5 μM antrocin
  Multiple (reduction of gene expression): 9.93
H441 lung cancer cells; GDPD1, probe 8008802, 5 μM antrocin
  Multiple (reduction of gene expression): 3.73
H441 lung cancer cells; IFI16, probe 7906400, 5 μM antrocin
  Multiple (reduction of gene expression): 4.9
H441 lung cancer cells; IFI44, probe 7902553, 5 μM antrocin
  Multiple (reduction of gene expression): 8.3
H441 lung cancer cells; IFIT1, probe 7929065, 5 μM antrocin
  Multiple (reduction of gene expression): 5.28
H441 lung cancer cells; IFIT2, probe 7929047, 5 μM antrocin
  Multiple (reduction of gene expression): 4.44
H441 lung cancer cells; IFITM2, probe 7937330, 5 μM antrocin
  Multiple (reduction of gene expression): 6.16
H441 lung cancer cells; LAMP3, probe 8092348, 5 μM antrocin
  Multiple (reduction of gene expression): 3.8
H441 lung cancer cells; LBA1, probe 8086125, 5 μM antrocin
  Multiple (reduction of gene expression): 4.35
H441 lung cancer cells; LILRA3, probe 8039226, 5 μM antrocin
  Multiple (reduction of gene expression): 4.58
H441 lung cancer cells; MX1, probe 8068713, 5 μM antrocin
  Multiple (reduction of gene expression): 5.42
H441 lung cancer cells; NFKB1, probe 8096635, 5 μM antrocin
  Multiple (reduction of gene expression): 3.85
H441 lung cancer cells; OAS2, probe 7958913, 5 μM antrocin
  Multiple (reduction of gene expression): 5.91
H441 lung cancer cells; OASL, probe 7967117, 5 μM antrocin
  Multiple (reduction of gene expression): 4.09
H441 lung cancer cells; OR1L8, probe 8163960, 5 μM antrocin
  Multiple (reduction of gene expression): 3.83
H441 lung cancer cells; PARP9, probe 8090018, 5 μM antrocin
  Multiple (reduction of gene expression): 4.03
H441 lung cancer cells; PARP14, probe 8082100, 5 μM antrocin
  Multiple (reduction of gene expression): 4.3
H441 lung cancer cells; POU5F2, probe 8113094, 5 μM antrocin
  Multiple (reduction of gene expression): 3.9
H441 lung cancer cells; PPARGC1A, probe 8099633, 5 μM antrocin
  Multiple (reduction of gene expression): 4.44
H441 lung cancer cells; RTP4, probe 8084732, 5 μM antrocin
  Multiple (reduction of gene expression): 4.6
H441 lung cancer cells; SAMD9L, probe 8140971, 5 μM antrocin
  Multiple (reduction of gene expression): 4.08
H441 lung cancer cells; SENP2, probe 8084607, 5 μM antrocin
  Multiple (reduction of gene expression): 8.9
H441 lung cancer cells; SIGLEC5, probe 8038877, 5 μM antrocin
  Multiple (reduction of gene expression): 4.94
H441 lung cancer cells; SLFN5, probe 8006531, 5 μM antrocin
  Multiple (reduction of gene expression): 3.65
H441 lung cancer cells; TAX1BP3, probe 8011407, 5 μM antrocin
  Multiple (reduction of gene expression): 7.15
H441 lung cancer cells; TNFSF10, probe 8092169, 5 μM antrocin
  Multiple (reduction of gene expression): 4.09
H441 lung cancer cells; TRIM22, probe 7938035, 5 μM antrocin
  Multiple (reduction of gene expression): 7.65
H441 lung cancer cells; XAF1, transcript variant 1, probe 8004184, 5 μM antrocin
  Multiple (reduction of gene expression): 12.61
H441 lung cancer cells; ZC3H6, probe 8044450, 5 μM antrocin
  Multiple (reduction of gene expression): 3.5
H441 lung cancer cells; cDNA DKFZp451O2417, probe 7902541, 5 μM antrocin
  Multiple (reduction of gene expression): 10.74
H441 lung cancer cells; catenin, beta like 1 (TNNBL1), probe 8062409, 5 μM antrocin
  Multiple (reduction of gene expression): 3.59
[1]
  body weight, treated group vs control group: no significant difference
XIAP
  inhibition of XIAP protein expression: dose-dependently inhibited
caspase-3 enzyme
  activation of caspase enzyme 3: markedly activated
Cyclin D1
  inhibition of cyclin D1 protein expression: dose-dependently inhibited
H1975 cells
  number of cells in early and late (final) stage of apoptosis: increase in the number of cells in early and late stage of apoptosis in a dose-dependent fashion; also recorded: increased significantly in a dose-dependent fashion
